Measurements taken from patent publication US9572343B2, “Active compound combinations” (BAYER CROPSCIENCE AG, priority 2012, dated 2017).
Where two headings read alike, the source gives them in different places.

What was measured:
Format in all cases: in vivo
[1] = test system: Blumeria graminis f.sp. hordei; assay: Blumeria test (barley)/preventive; settings: Table B1
Procedure: (§1) Solvent: 49 parts by weight of N,N-dimethylacetamide Emulsifier: 1 part by weight of alkylaryl polyglycol ether To produce a suitable preparation of active compound, 1 part by weight of active compound or active compound combination is mixed with the stated amounts of solvent and emulsifier, and the concentrate is diluted with water to the desired concentration. To test for preventive activity, young plants are sprayed with the preparation of active compound or active compound combination at the stated rate of application. After the spray coating has been dried, the plants are dusted with spores of Blumeria graminis f.sp. hordei.

[2] = test system: Alternaria solani; assay: Alternaria test (tomatoes)/preventive
Procedure: (§2) Solvent: 24.5 parts by weight of acetone • 24.5 parts by weight of dimethylacetamide
(§3) Emulsifier: 1 part by weight of alkylaryl polyglycol ether
(§4) To produce a suitable preparation of active compound, 1 part by weight of active compound is mixed with the stated amounts of solvent and emulsifier, and the concentrate is diluted with water to the desired concentration.
(§5) To test for preventive activity, young plants are sprayed with the preparation of active compound at the stated rate of application. After the spray coating has dried on, the plants are inoculated with an aqueous spore suspension of Alternaria solani. The plants are then placed in an incubation cabinet at approximately 20° C. and a relative atmospheric humidity of 100%.
The test is evaluated 3 days after the inoculation. 0% means an efficacy which corresponds to that of the untreated control while an efficacy of 100% means that no disease is observed.

[3] = test system: Uromyces appendiculatus; assay: Uromyces test (beans)/preventive
Procedure: as §2, §3, §4
as §5, with “the causal agent of bean rust (Uromyces appendiculatus) and” for “Alternaria solani. The plants are”, “remain for 1 day” for “placed”
The plants are then placed in a greenhouse at approximately 21° C. and a relative atmospheric humidity of approximately 90%.
The test is evaluated 10 days after the inoculation. 0% means an efficacy which corresponds to that of the untreated control, while an efficacy of 100% means that no disease is observed.

[4] = test system: Phakopsora pachyrhizi; assay: Phakopsora test (soybeans)/preventive
[5] = test system: Pyrenophora teres; assay: Pyrenophora teres-test (barley)/preventive; settings: Table E1
Procedure: Solvent: 49 parts by weight of N,N-dimethylacetamide
as §3
To produce a suitable preparation of active compound, 1 part by weight of active compound or active compound combination is mixed with the stated amounts of solvent and emulsifier, and the concentrate is diluted with water to the desired concentration.
To test for preventive activity, young plants are sprayed with the preparation of active compound or active compound combination at the stated rate of application.
After the spray coating has been dried, the plants are sprayed with a spore suspension of Pyrenophora teres. The plants remain for 48 hours in an incubation cabinet at approximately 20° C. and a relative atmospheric humidity of approximately 100%.
The plants are placed in the greenhouse at a temperature of approximately 20° C. and a relative atmospheric humidity of approximately 80%.
The test is evaluated 8 days after the inoculation. 0% means an efficacy which corresponds to that of the untreated control, while an efficacy of 100% means that no disease is observed.

[6] = test system: Venturia inaequalis; assay: Venturia test (apples)/preventive; settings: Table I1
Procedure: (§6) Solvent: 24.5 parts by weight of acetone • 24.5 parts by weight of dimethylacetamide Emulsifier: 1 part by weight of alkylaryl polyglycol ether To produce a suitable preparation of active compound, 1 part by weight of active compound is mixed with the stated amounts of solvent and emulsifier, and the concentrate is diluted with water to the desired concentration. To test for preventive activity, young plants are sprayed with the preparation of active compound at the stated rate of application.

[7] = test system: Septoria tritici; assay: Septoria tritici-test (wheat)/preventive; settings: Table F1
Procedure: as §1, with “sprayed” for “dusted”, “a spore suspension” for “spores”, “Septoria tritici.” for “Blumeria graminis f.sp. hordei.”

[8] = test system: Leptosphaeria nodorum; assay: Leptosphaeria nodorum test (wheat)/preventive; settings: Table C1; application rate 20 ppm a.i.
Procedure: as §1, with “sprayed” for “dusted”, “a spore suspension” for “spores”, “Leptosphaeria nodorum.” for “Blumeria graminis f.sp. hordei.”

[9] = test system: Sphaerotheca fuliginea; assay: Sphaerotheca test (cucumbers)/preventive; settings: Table G1; application rate 20 ppm a.i.
Procedure: as §6, with “application. After the spray coating has dried on, the plants are inoculated with an aqueous spore suspension of Sphaerotheca fuliginea.” for “application.”

[10] = Table A1, application rate 0.5 ppm a.i.
[11] = Phakopsora pachyrhizi, 168 h, Table D1, application rate 0.5 ppm a.i., read-out: Efficacy in % found
[12] = Table A2, application rate 5 ppm a.i.
[13] = Table A3, application rate 20 ppm a.i.
[14] = Table H3, application rate 20 ppm a.i.

Compound: CC(C)CC(C)c1sccc1NC(=O)c1cn(C)nc1C(F)(F)F (centres unmarked) [2.21, penthiopyrad]
- Efficacy in % found ([1]; application rate 80 ppm a.i.): 20%
- Efficacy in % found [2, 10]: 27%
- pest or weed control at 0.25 ppm ([3]; Uromyces appendiculatus, 240 h, Table H1, application rate 0.25 ppm a.i., read-out: Efficacy in % found): 30%
- pest or weed control at 0.5 ppm [4, 11]: 0%

Compound: CC1CC(C)(C)c2cccc(NC(=O)c3cn(C)nc3C(F)F)c21 (centres unmarked) [2.32, 3-(difluoromethyl)-1-methyl-N-(1,1,3-trimethyl-2,3-dihydro-1H-inden-4-yl)-1H-pyrazole-4-carboxamide]
- Efficacy in % found ([1]; application rate 80 ppm a.i.): 20%
- Efficacy in % found [2, 10]: 18%
- pest or weed control at 0.25 ppm ([3]; Uromyces appendiculatus, 240 h, read-out: Efficacy in % found): 75%
- Efficacy in % found ([5]; application rate 80 ppm a.i.): 0%
- pest or weed control at 0.5 ppm ([4]; Phakopsora pachyrhizi, 168 h, read-out: Efficacy in % found): 15%
- Efficacy in % found ([6]; application rate 1 ppm a.i.): 39%

Compound: CO/C=C(/C(=O)OC)c1ccccc1Oc1cc(Oc2ccccc2C#N)ncn1 [3.3, azoxystrobin]
- Efficacy in % found [2, 12]: 35%
- Efficacy in % found ([5]; application rate 20 ppm a.i.): 57%
- Efficacy in % found ([4]; Table D3, application rate 0.5 ppm a.i.): 68%
- Efficacy in % found ([6]; application rate 0.5 ppm a.i.): 88%

Compound: CO/N=C(/C1=NOCCO1)c1ccccc1Oc1ncnc(Oc2ccccc2Cl)c1F [3.12, fluoxastrobin]
- pest or weed control at 0.5 ppm ([3]; Uromyces appendiculatus, 240 h, Table H2, application rate 0.5 ppm a.i., read-out: Efficacy in % found): 65%
- Efficacy in % found ([5]; application rate 20 ppm a.i.): 16%
- Efficacy in % found ([6]; application rate 0.5 ppm a.i.): 30%

Compound: CO/C=C(/C(=O)OC)c1ccccc1COc1cccc(C(F)(F)F)n1 [3.16, picoxystrobin]
- Efficacy in % found ([1]; application rate 40 ppm a.i.): 50%
- Efficacy in % found ([3]; Table H2, application rate 2.5 ppm a.i.): 65%
- Efficacy in % found ([5]; application rate 40 ppm a.i.): 71%
- Efficacy in % found ([4]; Table D1, application rate 0.25 ppm a.i.): 8%

Compound: COC(=O)N(OC)c1ccccc1COc1ccn(-c2ccc(Cl)cc2)n1 [3.17, pyraclostrobin]
- Efficacy in % found ([2]; Table A1, application rate 1 ppm a.i.): 28%
- Efficacy in % found ([7]; application rate 20 ppm a.i.): 0%
- Efficacy in % found [8]: 50%
- pest or weed control at 0.25 ppm ([4]; Phakopsora pachyrhizi, 168 h, Table D1, application rate 0.25 ppm a.i., read-out: Efficacy in % found): 0%
- Efficacy in % found ([6]; application rate 1 ppm a.i.): 23%

Compound: CON=C(C(=O)OC)c1ccccc1CON=C(C)c1cccc(C(F)(F)F)c1 [3.22, trifloxystrobin]
- Efficacy in % found [2, 12]: 45%
- Efficacy in % found ([7]; application rate 20 ppm a.i.): 71%
- Efficacy in % found [8]: 40%
- Efficacy in % found ([6]; application rate 0.25 ppm a.i.): 66%

Compound: CC(C)c1ccc(Cl)cc1CN(C(=O)c1c(C(F)F)nn(C)c1F)C1CC1 [15.151, N-(5-chloro-2-isopropylbenzyl)-N-cyclopropyl-3-(difluoromethyl)-5-fluoro-1-methyl-1H-pyrazole-4-carboxamide]
- Efficacy in % found ([1]; application rate 20 ppm a.i.): 20%
- Efficacy in % found ([5]; application rate 20 ppm a.i.): 86%
- pest or weed control at 0.5 ppm [4, 11]: 0%

Compound: chlorothalonil [5.4]
- Efficacy in % found [2, 13]: 8%
- Efficacy in % found ([7]; application rate 160 ppm a.i.): 0%
- Efficacy in % found [9]: 29%
- Efficacy in % found [3, 14]: 0%
- Efficacy in % found ([6]; application rate 20 ppm a.i.): 68%

Compound: propineb [5.29]
- Efficacy in % found [2, 13]: 12%
- Efficacy in % found ([7]; application rate 400 ppm a.i.): 29%
- Efficacy in % found [9]: 71%
- Efficacy in % found [3, 14]: 56%
- Efficacy in % found ([4]; Table D3, application rate 20 ppm a.i.): 0%
- Efficacy in % found ([6]; application rate 5 ppm a.i.): 14%
